The values below come from ChEMBL document CHEMBL4387773, “Identification of potent, selective and orally bioavailable phenyl ((R)-3-phenylpyrrolidin-3-yl)sulfone analogues as RORγt inverse agonists” (Bioorg Med Chem Lett, 2019).

Where only a bound is given, the exact number is not on record here.

Data set [1] can be described thus: Stability in human liver microsomes assessed as parent compound remaining after 10 mins. In kind it is ADME, Microsome. Conditions: liver microsomes, read-out: Stability.
For data set [2], the target named is T1, Nuclear receptor subfamily 1 group I member 2 (Homo sapiens, UniProt O75469).
T1 sequence (O75469 whole entry): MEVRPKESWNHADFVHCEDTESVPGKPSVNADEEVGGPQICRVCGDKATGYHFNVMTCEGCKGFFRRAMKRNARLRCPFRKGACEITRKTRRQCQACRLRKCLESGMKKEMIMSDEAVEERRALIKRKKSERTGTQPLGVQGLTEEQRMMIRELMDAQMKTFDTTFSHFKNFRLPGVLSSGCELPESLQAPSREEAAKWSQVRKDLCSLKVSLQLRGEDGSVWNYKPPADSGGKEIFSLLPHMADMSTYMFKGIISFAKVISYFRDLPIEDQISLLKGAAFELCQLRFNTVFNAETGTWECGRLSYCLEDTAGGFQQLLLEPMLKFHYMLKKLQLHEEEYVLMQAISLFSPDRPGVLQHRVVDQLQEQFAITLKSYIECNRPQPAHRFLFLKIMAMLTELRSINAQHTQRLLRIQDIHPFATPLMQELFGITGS
Briefly: Transactivation of PXR (unknown origin) expressed in human HepG2 cells. The class given is cell-based.

The target of another data set is T2, PXR (Homo sapiens, UniProt O75469).
T2 sequence (O75469 whole entry): T1 sequence (O75469 whole entry)
The data set can be described thus: Transactivation of PXR (unknown origin) expressed in human HepG2 cells assessed as maximum receptor activation response relative to control. The following applies: human HepG2 cells that express PXR, read-out: %max. The class given is cell-based.

The nature of data set [3]: Stability in mouse liver microsomes assessed as parent compound remaining after 10 mins. In kind it is ADME, Microsome. The following applies: liver microsomes, read-out: Stability. (In general: Liver microsomes are vesicles of endoplasmic reticulum, rich in cytochrome P450 enzymes.)
The target in data set [4] is T3, Nuclear receptor ROR-alpha (Homo sapiens, UniProt P35398).
T3 sequence (P35398 whole entry): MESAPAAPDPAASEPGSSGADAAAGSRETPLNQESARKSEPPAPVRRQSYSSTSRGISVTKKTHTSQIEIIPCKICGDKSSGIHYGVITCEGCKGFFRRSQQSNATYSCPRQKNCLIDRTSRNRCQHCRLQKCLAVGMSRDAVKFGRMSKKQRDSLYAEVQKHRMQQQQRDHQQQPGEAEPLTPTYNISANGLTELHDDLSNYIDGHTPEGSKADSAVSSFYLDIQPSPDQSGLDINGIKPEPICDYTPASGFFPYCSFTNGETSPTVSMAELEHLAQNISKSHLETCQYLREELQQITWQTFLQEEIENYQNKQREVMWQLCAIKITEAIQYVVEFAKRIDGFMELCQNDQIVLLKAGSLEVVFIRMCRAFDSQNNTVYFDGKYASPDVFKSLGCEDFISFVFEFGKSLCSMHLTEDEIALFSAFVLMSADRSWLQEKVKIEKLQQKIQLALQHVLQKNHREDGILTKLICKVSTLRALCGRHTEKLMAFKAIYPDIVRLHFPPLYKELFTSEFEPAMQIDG
Briefly: Inverse agonist activity at human Gal4-fused RORalpha LBD (272 to 556 residues) expressed in human Jurkat cells measured after 18 hrs by steady-glo luciferase reporter gene assay. The class given is cell-based.

The target of data set [5] is T4, Nuclear receptor ROR-beta (Homo sapiens, UniProt Q92753).
T4 sequence (Q92753 whole entry): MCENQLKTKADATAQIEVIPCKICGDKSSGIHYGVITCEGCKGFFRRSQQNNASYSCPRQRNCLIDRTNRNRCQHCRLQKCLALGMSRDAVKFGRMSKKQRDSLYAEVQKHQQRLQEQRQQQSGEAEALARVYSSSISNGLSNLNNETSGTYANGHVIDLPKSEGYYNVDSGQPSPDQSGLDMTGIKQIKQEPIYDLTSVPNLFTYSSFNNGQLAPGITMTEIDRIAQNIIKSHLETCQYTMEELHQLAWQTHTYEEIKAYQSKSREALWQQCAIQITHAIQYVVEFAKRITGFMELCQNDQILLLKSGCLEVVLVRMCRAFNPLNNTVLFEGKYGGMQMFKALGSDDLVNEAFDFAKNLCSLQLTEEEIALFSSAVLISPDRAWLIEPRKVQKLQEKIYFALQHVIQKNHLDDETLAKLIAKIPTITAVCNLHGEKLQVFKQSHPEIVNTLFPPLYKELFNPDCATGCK
The data set can be described thus: Inverse agonist activity at human Gal4-fused RORbeta LBD (200 to 559 residues) expressed in human Jurkat cells measured after 18 hrs by steady-glo luciferase reporter gene assay. The class given is cell-based. A general note: Reporter assays use an easily measured gene product as a stand-in for the process of interest.

Data set [6] deals with T5, Oxysterols receptor LXR-alpha (Homo sapiens, UniProt Q13133).
T5 sequence (Q13133 whole entry): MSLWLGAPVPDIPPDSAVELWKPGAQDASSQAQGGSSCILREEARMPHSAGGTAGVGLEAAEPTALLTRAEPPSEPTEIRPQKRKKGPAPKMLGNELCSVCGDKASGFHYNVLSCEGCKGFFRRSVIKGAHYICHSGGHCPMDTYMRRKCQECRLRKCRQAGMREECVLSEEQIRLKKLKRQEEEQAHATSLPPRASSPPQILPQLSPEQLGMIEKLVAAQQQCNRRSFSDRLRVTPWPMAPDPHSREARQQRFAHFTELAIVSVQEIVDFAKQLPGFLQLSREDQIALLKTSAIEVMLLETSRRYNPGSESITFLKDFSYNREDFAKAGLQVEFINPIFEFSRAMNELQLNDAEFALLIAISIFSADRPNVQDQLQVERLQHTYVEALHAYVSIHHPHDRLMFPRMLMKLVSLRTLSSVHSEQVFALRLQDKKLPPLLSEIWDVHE
Briefly: Transactivation of human GAL4-fused LXRalpha expressed in African green monkey CV1 cells. The class given is cell-based.

Data set [7] has as its target T6, Oxysterols receptor LXR-beta (Homo sapiens, UniProt P55055).
T6 sequence (P55055 whole entry): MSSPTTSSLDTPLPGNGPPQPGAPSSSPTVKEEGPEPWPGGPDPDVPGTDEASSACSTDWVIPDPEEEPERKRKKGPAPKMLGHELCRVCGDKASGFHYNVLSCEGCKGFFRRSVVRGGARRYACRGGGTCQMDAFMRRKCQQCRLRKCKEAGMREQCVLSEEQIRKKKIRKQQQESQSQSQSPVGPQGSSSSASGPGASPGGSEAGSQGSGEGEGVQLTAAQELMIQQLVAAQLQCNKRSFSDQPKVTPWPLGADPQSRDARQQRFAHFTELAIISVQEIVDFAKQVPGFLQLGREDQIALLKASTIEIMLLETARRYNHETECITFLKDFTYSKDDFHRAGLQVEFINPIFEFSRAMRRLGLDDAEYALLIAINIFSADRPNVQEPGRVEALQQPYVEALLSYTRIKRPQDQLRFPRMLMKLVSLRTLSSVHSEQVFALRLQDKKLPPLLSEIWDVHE
The data set can be described thus: Transactivation of human GAL4-fused LXRbeta expressed in African green monkey CV1 cells. The class given is cell-based.

As usually defined, the EC50 is the concentration giving half of the maximal effect. For the compound `O=C(N1CC[C@](c2ccc(C(F)(C(F)(F)F)C(F)(F)F)cc2)(S(=O)(=O)c2ccc(F)cc2)C1)C1(F)CCS(=O)(=O)CC1`, the remaining at 10 min in data set [1] came out at 100%; in data set [3], 90%. Further, the EC50 was > 50 µM in data set [2]; > 40 µM in data set [4]; > 40 µM in data set [5]; > 7.5 µM in data set [6]; > 7.5 µM in data set [7]. Also, the Emax on PXR was 16%.

On to `NC(=O)[C@H]1CC[C@H](C(=O)N2CC[C@](c3ccc(C(F)(C(F)(F)F)C(F)(F)F)cc3)(S(=O)(=O)c3ccc(F)cc3)C2)CC1`, for which the remaining at 10 min in data set [1] and in data set [3] was 100% in each case. The EC50 in data set [2] is > 50 µM; in data set [4], > 40 µM; in data set [5] it was > 40 µM; in data set [6], > 7.5 µM; in data set [7] it was > 7.5 µM. For the same compound, the Emax at PXR is 5%.

Regarding `O=C(O)[C@@H]1C[C@@H]2[C@H](C1)[C@H]2C(=O)N1CC[C@](c2ccc(C(F)(C(F)(F)F)C(F)(F)F)cc2)(S(=O)(=O)c2ccc(F)cc2)C1`, the remaining at 10 min in data set [1] and in data set [3] was 100% in each case. Besides, the concentration for a half-maximal effect (EC50) in data set [2] is > 33 µM; in data set [4] it was > 40 µM; in data set [5], > 40 µM; in data set [6] it was > 7.5 µM; in data set [7] it was > 7.5 µM. For the same compound, on PXR, the Emax was 43%.

For `O=C(O)C12CCC(C(=O)N3CC[C@](c4ccc(C(F)(C(F)(F)F)C(F)(F)F)cc4)(S(=O)(=O)c4ccc(F)cc4)C3)(CC1)OC2`, the figures for the remaining at 10 min in data set [1] and in data set [3] were 90% and 94%, respectively. Further, the EC50 is > 50 µM in data set [2]; > 40 µM in data set [4]; > 40 µM in data set [5]; > 7.5 µM in data set [6]; > 7.5 µM in data set [7]. On PXR, the Emax worked out at 5%.

On to `O=C(C1CCS(=O)(=O)CC1)N1CC[C@](c2ccc(C(F)(C(F)(F)F)C(F)(F)F)cc2)(S(=O)(=O)c2ccc(F)cc2)C1`, for which the remaining at 10 min turned out to be 93% in data set [1] and 96% in data set [3]. In addition, the EC50 in data set [2] was > 50 µM; in data set [4], > 40 µM; in data set [5] it was > 40 µM; in data set [6], > 7.5 µM; in data set [7] it was > 7.5 µM. In addition, the Emax at PXR came to 5%.

`O=C([C@H]1CC[C@H](O)CC1)N1CC[C@](c2ccc(C(F)(C(F)(F)F)C(F)(F)F)cc2)(S(=O)(=O)c2ccc(F)cc2)C1`: the remaining at 10 min in data set [1] was 86%; in data set [3], 58%. Moreover, the EC50 in data set [2] is > 50 µM; in data set [4] it was > 40 µM; in data set [5], > 40 µM; in data set [6] it was > 7.5 µM; in data set [7], > 7.5 µM. In addition, on PXR, the Emax was found to be 13%.

Take `CCC1(C(=O)N2CC[C@](c3ccc(C(F)(C(F)(F)F)C(F)(F)F)cc3)(S(=O)(=O)c3ccc(F)cc3)C2)CCS(=O)(=O)CC1`: the values for the remaining at 10 min in data set [1] and in data set [3] were 3% and 0%, respectively. Moreover, the EC50 in data set [2] was 5.2 µM; in data set [4] it was > 40 µM; in data set [5], > 40 µM; in data set [6], > 7.5 µM; in data set [7] it was > 7.5 µM. Further, on PXR, the Emax amounted to 32%.

For `O=C(N1CC[C@](c2ccc(C(F)(C(F)(F)F)C(F)(F)F)cc2)(S(=O)(=O)c2ccc(F)cc2)C1)C1(O)CCS(=O)(=O)CC1`, the remaining at 10 min worked out at 100% in data set [1] and 90% in data set [3]. Also, the EC50 is > 50 µM in data set [2]; > 40 µM in data set [4]; > 40 µM in data set [5]; > 7.5 µM in data set [6]; > 7.5 µM in data set [7]. Also, the Emax at PXR was found to be 6%.

On to `O=C(O)[C@@H]1[C@@H]2C[C@@H](C(=O)N3CC[C@](c4ccc(C(F)(C(F)(F)F)C(F)(F)F)cc4)(S(=O)(=O)c4ccc(F)cc4)C3)C[C@@H]21`, for which the remaining at 10 min in data set [1] is 100%; in data set [3], 84%. Also, the concentration giving a half-maximal response (EC50) in data set [2] was > 50 µM; in data set [4], > 40 µM; in data set [5], > 40 µM; in data set [6], > 7.5 µM; in data set [7], > 7.5 µM. Moreover, on PXR, the Emax came to 11%.

`O=C(N1CC[C@](c2ccc(C(F)(C(F)(F)F)C(F)(F)F)cc2)(S(=O)(=O)c2ccc(F)cc2)C1)C1(CO)CCS(=O)(=O)CC1`: the remaining at 10 min in data set [1] turned out to be 75%; in data set [3], 31%. Further, the EC50 in data set [2] is > 50 µM; in data set [4], > 40 µM; in data set [5], > 40 µM; in data set [6], > 7.5 µM; in data set [7] it was > 7.5 µM. Further, the Emax on PXR amounted to 8%.

On to `O=C([C@H]1CC[C@H](CO)CC1)N1CC[C@](c2ccc(C(F)(C(F)(F)F)C(F)(F)F)cc2)(S(=O)(=O)c2ccc(F)cc2)C1`, for which the remaining at 10 min in data set [1] was found to be 75%; in data set [3], 63%. The EC50 in data set [2] is > 50 µM; in data set [4] it was > 40 µM; in data set [5], > 40 µM; in data set [6], > 7.5 µM; in data set [7], > 7.5 µM. The Emax at PXR came to 8%.

`O=C([C@H]1CC[C@H](c2nnn[nH]2)CC1)N1CC[C@](c2ccc(C(F)(C(F)(F)F)C(F)(F)F)cc2)(S(=O)(=O)c2ccc(F)cc2)C1`: the remaining at 10 min in data set [1] worked out at 100%; in data set [3], 73%. The EC50 in data set [2] is > 50 µM; in data set [4] it was > 40 µM; in data set [5], > 40 µM; in data set [6], > 7.5 µM; in data set [7], > 7.5 µM. On PXR, the Emax turned out to be 11%.

For the compound `O=C(C1CCS(=O)(=O)C1)N1CC[C@](c2ccc(C(F)(C(F)(F)F)C(F)(F)F)cc2)(S(=O)(=O)c2ccc(F)cc2)C1` (stereo in doubt; 32), the remaining at 10 min in data set [1] came out at 100%; in data set [3], 78%. In addition, the EC50 in data set [2] is > 13 µM; in data set [4], > 40 µM; in data set [5], > 40 µM; in data set [6], > 7.5 µM; in data set [7], > 7.5 µM. On PXR, the Emax amounted to 49%.
